Our source for the AC50 values is ChEMBL document CHEMBL5291721, “A preclinical secondary pharmacology resource illuminates target-adverse drug reaction associations of marketed drugs” (Nat Commun, 2023).

Test [1] has as its target T1, Progesterone receptor (Homo sapiens, UniProt P06401).
T1 sequence (P06401 whole entry): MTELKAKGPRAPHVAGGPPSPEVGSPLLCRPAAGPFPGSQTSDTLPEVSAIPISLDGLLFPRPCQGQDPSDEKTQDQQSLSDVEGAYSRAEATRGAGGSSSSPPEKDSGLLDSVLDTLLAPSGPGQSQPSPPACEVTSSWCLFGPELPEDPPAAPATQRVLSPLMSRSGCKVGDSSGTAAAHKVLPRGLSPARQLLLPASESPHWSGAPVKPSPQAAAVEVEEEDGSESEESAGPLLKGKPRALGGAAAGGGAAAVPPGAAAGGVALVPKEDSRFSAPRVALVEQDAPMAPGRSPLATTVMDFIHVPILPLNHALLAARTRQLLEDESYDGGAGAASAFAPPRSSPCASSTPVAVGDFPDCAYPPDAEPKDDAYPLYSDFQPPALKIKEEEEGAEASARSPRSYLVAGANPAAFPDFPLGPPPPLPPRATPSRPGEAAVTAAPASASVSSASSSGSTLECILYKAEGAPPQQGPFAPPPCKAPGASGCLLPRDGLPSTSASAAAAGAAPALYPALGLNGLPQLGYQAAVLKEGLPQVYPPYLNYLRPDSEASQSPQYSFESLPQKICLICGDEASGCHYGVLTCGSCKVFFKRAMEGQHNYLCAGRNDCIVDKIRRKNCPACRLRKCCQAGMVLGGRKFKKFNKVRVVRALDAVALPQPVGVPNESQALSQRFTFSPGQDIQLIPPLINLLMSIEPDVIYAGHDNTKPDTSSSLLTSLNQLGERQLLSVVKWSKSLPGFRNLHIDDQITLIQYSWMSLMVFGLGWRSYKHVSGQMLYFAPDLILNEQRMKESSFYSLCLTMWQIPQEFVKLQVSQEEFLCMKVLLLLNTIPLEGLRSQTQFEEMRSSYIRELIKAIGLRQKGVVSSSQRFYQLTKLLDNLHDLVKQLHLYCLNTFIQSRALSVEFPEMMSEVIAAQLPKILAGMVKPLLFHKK
Format: functional.

The target of test [2] is Histamine H2 receptor (Homo sapiens, UniProt P25021). Format: functional, cell-based.
Test [3] addresses T2, Alpha-2A adrenergic receptor (Homo sapiens, UniProt P08913).
T2 sequence (P08913 whole entry): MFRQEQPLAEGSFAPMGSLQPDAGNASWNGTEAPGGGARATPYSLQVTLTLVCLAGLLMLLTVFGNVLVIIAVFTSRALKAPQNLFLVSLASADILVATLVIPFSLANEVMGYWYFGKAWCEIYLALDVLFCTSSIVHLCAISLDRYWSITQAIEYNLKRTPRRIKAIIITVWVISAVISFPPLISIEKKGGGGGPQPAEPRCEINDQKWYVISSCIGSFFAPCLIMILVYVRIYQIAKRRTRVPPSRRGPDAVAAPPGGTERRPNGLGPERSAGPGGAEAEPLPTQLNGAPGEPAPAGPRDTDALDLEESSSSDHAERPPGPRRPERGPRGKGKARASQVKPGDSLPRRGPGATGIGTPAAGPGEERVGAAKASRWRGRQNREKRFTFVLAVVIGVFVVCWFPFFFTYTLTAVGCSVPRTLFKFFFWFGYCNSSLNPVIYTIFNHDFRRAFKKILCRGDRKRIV
Format: functional, cell-based.

For test [4], the target named is Adenosine receptor A2a (Homo sapiens, UniProt P29274).
Test [5] has as its target Vasopressin V1a receptor (Homo sapiens, UniProt P37288).
For test [6], the target named is T1, Progesterone receptor. Type of test: functional. This is another data set of the same source.
Test [7] concerns the target Motilin receptor (Homo sapiens, UniProt O43193).
Test [8] has as its target Gamma-aminobutyric acid receptor subunit alpha-1 (Rattus norvegicus, UniProt P62813). Format: functional.
In test [9] the target is T3, Type-1 angiotensin II receptor (Homo sapiens, UniProt P30556).
T3 sequence (P30556 whole entry): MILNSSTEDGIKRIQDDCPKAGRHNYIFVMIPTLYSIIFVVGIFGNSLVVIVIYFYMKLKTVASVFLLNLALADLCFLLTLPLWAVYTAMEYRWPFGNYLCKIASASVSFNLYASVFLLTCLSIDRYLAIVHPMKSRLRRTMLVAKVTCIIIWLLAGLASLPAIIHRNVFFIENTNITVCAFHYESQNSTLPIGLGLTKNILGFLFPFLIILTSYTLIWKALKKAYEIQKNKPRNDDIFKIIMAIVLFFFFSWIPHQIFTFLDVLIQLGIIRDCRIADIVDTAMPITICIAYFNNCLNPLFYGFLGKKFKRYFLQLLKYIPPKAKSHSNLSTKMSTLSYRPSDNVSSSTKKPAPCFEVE

Test [10] deals with T4, Gastrin/cholecystokinin type B receptor (Homo sapiens, UniProt P32239).
T4 sequence (P32239 whole entry): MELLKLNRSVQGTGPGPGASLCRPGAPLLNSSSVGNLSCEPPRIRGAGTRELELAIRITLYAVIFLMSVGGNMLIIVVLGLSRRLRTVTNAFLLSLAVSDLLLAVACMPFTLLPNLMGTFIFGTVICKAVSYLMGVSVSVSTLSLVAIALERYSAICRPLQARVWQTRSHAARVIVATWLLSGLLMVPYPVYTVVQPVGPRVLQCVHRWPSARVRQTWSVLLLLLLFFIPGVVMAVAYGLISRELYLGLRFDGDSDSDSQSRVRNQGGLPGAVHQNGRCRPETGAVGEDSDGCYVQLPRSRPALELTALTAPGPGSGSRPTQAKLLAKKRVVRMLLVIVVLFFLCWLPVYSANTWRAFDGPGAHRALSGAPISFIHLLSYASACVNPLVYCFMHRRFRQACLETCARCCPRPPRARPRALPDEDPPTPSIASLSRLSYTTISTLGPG
Further: assay procedure not described here.

Chain of Motilin receptor (O43193 whole entry): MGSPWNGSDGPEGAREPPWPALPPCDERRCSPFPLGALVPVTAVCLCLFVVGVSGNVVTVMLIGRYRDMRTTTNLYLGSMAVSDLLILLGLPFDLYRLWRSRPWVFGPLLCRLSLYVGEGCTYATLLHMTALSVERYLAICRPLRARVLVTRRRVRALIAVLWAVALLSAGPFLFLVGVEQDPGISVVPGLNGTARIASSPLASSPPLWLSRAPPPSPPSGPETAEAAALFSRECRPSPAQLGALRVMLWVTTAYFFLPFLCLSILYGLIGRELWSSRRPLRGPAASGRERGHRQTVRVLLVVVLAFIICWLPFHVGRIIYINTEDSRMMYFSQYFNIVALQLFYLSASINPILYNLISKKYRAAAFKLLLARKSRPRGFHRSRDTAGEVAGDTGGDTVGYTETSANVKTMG
Chain of Vasopressin V1a receptor (P37288 whole entry): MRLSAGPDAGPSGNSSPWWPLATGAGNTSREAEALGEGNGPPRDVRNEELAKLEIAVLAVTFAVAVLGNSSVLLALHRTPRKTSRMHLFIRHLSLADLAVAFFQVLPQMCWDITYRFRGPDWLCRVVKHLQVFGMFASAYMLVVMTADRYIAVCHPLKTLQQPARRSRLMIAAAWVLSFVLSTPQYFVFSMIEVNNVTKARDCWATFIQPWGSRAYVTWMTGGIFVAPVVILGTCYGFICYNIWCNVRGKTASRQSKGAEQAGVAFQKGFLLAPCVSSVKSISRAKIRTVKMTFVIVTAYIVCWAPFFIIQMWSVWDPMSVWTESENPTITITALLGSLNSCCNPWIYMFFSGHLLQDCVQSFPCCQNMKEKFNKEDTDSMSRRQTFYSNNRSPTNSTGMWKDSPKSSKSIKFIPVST
Chain of Histamine H2 receptor (P25021 whole entry): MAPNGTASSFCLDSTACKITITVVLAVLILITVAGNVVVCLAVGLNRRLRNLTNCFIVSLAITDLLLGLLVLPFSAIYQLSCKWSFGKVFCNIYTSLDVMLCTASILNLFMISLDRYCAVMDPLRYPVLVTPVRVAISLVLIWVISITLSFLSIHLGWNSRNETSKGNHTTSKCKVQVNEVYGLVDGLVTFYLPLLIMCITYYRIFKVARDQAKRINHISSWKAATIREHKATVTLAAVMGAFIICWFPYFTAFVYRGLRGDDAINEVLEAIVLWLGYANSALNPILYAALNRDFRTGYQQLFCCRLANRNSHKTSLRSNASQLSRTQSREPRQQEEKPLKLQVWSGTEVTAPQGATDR
Chain of Adenosine receptor A2a (P29274 whole entry): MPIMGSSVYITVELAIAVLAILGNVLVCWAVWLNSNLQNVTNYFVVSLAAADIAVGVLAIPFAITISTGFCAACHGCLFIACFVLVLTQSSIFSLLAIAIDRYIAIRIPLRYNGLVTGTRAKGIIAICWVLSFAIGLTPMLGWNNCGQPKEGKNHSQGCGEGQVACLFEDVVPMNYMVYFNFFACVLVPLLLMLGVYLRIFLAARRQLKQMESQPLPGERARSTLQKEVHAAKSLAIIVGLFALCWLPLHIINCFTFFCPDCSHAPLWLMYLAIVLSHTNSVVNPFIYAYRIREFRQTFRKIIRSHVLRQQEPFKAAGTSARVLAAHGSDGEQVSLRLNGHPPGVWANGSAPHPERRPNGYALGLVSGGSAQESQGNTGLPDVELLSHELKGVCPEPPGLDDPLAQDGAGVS
Chain of Gamma-aminobutyric acid receptor subunit alpha-1 (P62813 whole entry): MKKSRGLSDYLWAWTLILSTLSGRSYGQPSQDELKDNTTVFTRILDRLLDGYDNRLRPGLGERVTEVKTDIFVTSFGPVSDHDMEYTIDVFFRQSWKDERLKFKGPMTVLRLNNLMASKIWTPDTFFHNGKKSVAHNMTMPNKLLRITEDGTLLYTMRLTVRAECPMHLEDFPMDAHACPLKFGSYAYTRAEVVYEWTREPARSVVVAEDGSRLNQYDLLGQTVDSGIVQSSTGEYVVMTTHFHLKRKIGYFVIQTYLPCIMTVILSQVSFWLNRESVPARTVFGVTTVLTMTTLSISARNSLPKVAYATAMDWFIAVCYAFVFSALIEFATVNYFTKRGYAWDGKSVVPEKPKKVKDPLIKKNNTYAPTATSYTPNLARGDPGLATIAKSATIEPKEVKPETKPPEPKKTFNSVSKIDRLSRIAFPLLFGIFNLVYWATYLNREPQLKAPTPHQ

With `CC(C)N(CCCCOCC(=O)O)c1cnc(-c2ccccc2)c(-c2ccccc2)n1`, the AC50 in test [1], in test [2], in test [3], in [4], in test [5] and in test [6] was above 30 µM throughout. Besides, the half-maximal activity concentration (AC50) (in general, the concentration giving half of the maximal activity seen) was above 30 µM in [7], above 30 µM in test [8], 17 µM in test [9] and above 3 µM in [10].
With `C[N+]12CCC(CC1)C(OC(=O)C(O)(c1ccccc1)c1ccccc1)C2` (configuration not stated), the AC50 in test [1], in test [2], in test [3], in test [4], in [5] and in [6] was above 30 µM each time. The AC50 in test [7], in [8], in test [9] and in [10] was above 30 µM each time.
Consider `O=C(O)CCNC(=O)c1ccc(/N=N/c2ccc(O)c(C(=O)O)c2)cc1` [BALSALAZIDE], for which the half-maximal activity concentration (AC50) in test [1] was above 30 µM; in [2], above 30 µM; in [3], above 30 µM; in test [4], 33.1 µM; in [5], 33.7 µM; in test [6], above 30 µM. Moreover, the concentration at half-maximal activity (AC50) in test [7] is above 30 µM; in [8] it was above 30 µM; in test [9] it was 27.6 µM; in test [10] it was above 30 µM.
Turning to `O=C(CCCN1CCC(O)(c2ccc(Br)cc2)CC1)c1ccc(F)cc1` [BROMPERIDOL], the AC50 in test [1], in test [2], in [4], in test [5], in test [6] and in test [7] was above 30 µM each time. Further, the AC50 in test [8], in test [9] and in test [10] was above 30 µM throughout.
For the molecule `Clc1ccc(CCC(Cn2ccnc2)Sc2c(Cl)cccc2Cl)cc1` (configuration not stated) [BUTOCONAZOLE], the half-maximal activity concentration (AC50) is above 30 µM in test [1]; above 30 µM in test [2]; above 30 µM in test [3]; above 30 µM in [4]; above 30 µM in [5]; 9.1 µM in test [6]. Besides, the AC50 in test [7] is above 30 µM; in test [8], above 30 µM; in test [9], 30 µM; in test [10] it was above 30 µM.
With `CO/N=C(\C(=O)N[C@@H]1C(=O)N2C(C(=O)O)=CCS[C@H]12)c1csc(N)n1` [CEFTIZOXIME], the concentration at half-maximal activity (AC50) in test [1] is above 30 µM; in test [2] it was above 30 µM; in [3], above 30 µM; in test [4], above 30 µM; in test [5], above 30 µM; in test [6], 26 µM. In addition, the AC50 in test [7], in test [9] and in test [10] was above 30 µM throughout.
In the case of `CO/N=C(\C(=O)N[C@@H]1C(=O)N2C(C(=O)O)=C(CSc3nc(=O)c(=O)[nH]n3C)CS[C@H]12)c1csc(N)n1` [CEFTRIAXONE], the half-maximal activity concentration (AC50) was above 30 µM in [1]; above 30 µM in [2]; above 30 µM in [3]; above 30 µM in test [4]; above 30 µM in test [5]; 23 µM in [6]. Besides, the half-maximal activity concentration (AC50) in test [7], in [8], in [9] and in test [10] was above 30 µM throughout.
In the case of `Oc1ccc(CCNCCCCCCNCCc2ccccc2)cc1O` [DOPEXAMINE], the AC50 in test [1], in test [2], in [3], in test [4], in test [5] and in test [6] was above 30 µM throughout. Further, the AC50 in test [7], in test [8], in test [9] and in test [10] was above 30 µM in each case.
Take `CCc1cc2c(s1)-n1c(C)nnc1CN=C2c1ccccc1Cl` [ETIZOLAM]: the AC50 in test [1], in test [2], in test [3], in [4], in test [5] and in test [6] was above 30 µM each time. For the same molecule, the AC50 in test [7] was above 30 µM; in [8], 0.0091 µM; in test [9], above 30 µM; in test [10], above 30 µM.
Regarding `CC/C=C\C/C=C\C/C=C\C/C=C\C/C=C\CCCC(=O)OCC` [ICOSAPENT ETHYL], the concentration at half-maximal activity (AC50) in test [1] is above 30 µM; in test [2] it was above 30 µM; in test [3], above 30 µM; in [4], above 30 µM; in test [5] it was above 30 µM; in test [6], 3.5 µM. In addition, the AC50 in [7], in [8], in [9] and in test [10] was above 30 µM each time.
In the case of `NNC(=O)c1ccncc1` [ISONIAZID], the half-maximal activity concentration (AC50) in test [1] was above 30 µM; in [2] it was above 10 µM; in test [3], above 30 µM; in test [4], above 30 µM; in test [5], above 30 µM; in test [6] it was above 30 µM. Also, the AC50 in test [7], in test [8], in [9] and in test [10] was above 30 µM each time.
For `COc1ccc(CN2CCN(C(c3ccc(F)cc3)c3ccc(F)cc3)CC2)c(OC)c1OC` [LOMERIZINE], the half-maximal activity concentration (AC50) in test [1], in test [2], in [3], in [4], in [5] and in test [6] was above 30 µM throughout. The half-maximal activity concentration (AC50) in test [7], in test [8], in [9] and in [10] was above 30 µM each time.
Regarding `CCOC(=O)[C@@H](N)Cc1ccc(-c2cc(O[C@H](c3ccc(Cl)cc3-n3ccc(C)n3)C(F)(F)F)nc(N)n2)cc1` [TELOTRISTAT ETHYL], the half-maximal activity concentration (AC50) in [1], in test [2], in [3], in [4], in test [5] and in test [6] was above 30 µM each time. The half-maximal activity concentration (AC50) in test [8] is above 30 µM; in test [9] it was 11 µM; in test [10] it was above 30 µM.
